Read-outs that look alike come from different tables or passages of the source.
Legend:
Type in all cases: in vivo
[1] = test system: Spodoptera littoralis; test: Spodoptera littoralis (Egyptian cotton leaf worm) leaf disc test; settings: foliar, 72 h, application rate 200 ppm, cotton leaf discs sprayed, L1 larvae, 3 days after infestation, read-out: control (at least one of mortality, anti-feedant effect, growth inhibition)
Description: Spodoptera littoralis (Egyptian Cotton Leaf Worm)
Cotton leaf discs were placed on agar in 24-well microtiter plates and sprayed with aqueous test solutions prepared from 10′000 ppm DMSO stock solutions. After drying the leaf discs were infested with five L1 larvae. The samples were assessed for mortality, anti-feedant effect, and growth inhibition in comparison to untreated samples 3 days after infestation. Control of Spodoptera littoralis by a test sample is when at least one of mortality, anti-feedant effect, and growth inhibition is higher than the untreated sample.

[2] = test system: Plutella xylostella; test: Plutella xylostella (diamond back moth) artificial diet test; settings: 120 h, read-out: control (mortality and growth inhibition)
Description: Plutella xylostella (Diamond Back Moth):
(§1) 24-well microtiter plates with artificial diet were treated with aqueous test solutions prepared from 10′000 ppm DMSO stock solutions by pipetting. After drying, the plates were infested with L2 larvae (10 to 15 per well). The samples were assessed for mortality and growth inhibition in comparison to untreated samples 5 days after infestation.

[3] = test system: Diabrotica Balteata; test: Diabrotica balteata (corn root worm) maize sprout test; settings: 96 h, read-out: control (mortality and growth inhibition)
Description: Diabrotica Balteata, (Corn Root Worm)
as §1, with “Maize sprouts, placed on an agar layer in 24-well” for “24-well”, “plates” for “plates with artificial diet”, “spraying.” for “pipetting.”, “(6” for “(10”, “10” for “15”, “4” for “5”

[4] = test system: Thrips tabaci; test: Thrips tabaci (onion thrips) leaf disc test; settings: foliar, 144 h, read-out: control (mortality)
Description: Thrips tabaci (Onion Thrips):
(§2) Sunflower leaf discs were placed on agar in 24-well microtiter plates and sprayed with aqueous test solutions prepared from 10′000 ppm DMSO stock solutions. After drying the leaf discs were infested with a thrips population of mixed ages. The samples were assessed for mortality 6 days after infestation.

[5] = test system: Tetranychus urticae; test: Tetranychus urticae (two-spotted spider mite) leaf disc test; settings: foliar, 192 h, read-out: control (mortality on mixed population, mobile stages)
Description: Tetranychus urticae (Two-Spotted Spider Mite):
as §2, with “Bean” for “Sunflower”, “discs” for “discs were placed”, “were” for “and”, “mite” for “thrips”, “on mixed population (mobile stages) 8” for “6”

[6] = test system: Euschistus heros; test: Euschistus heros (neotropical brown stink bug) soybean leaf test; settings: 120 h, read-out: control (mortality and growth inhibition)
Description: Euschistus heros (Neotropical Brown Stink Bug):
Soybean leaves on agar in 24-well microtiter plates were sprayed with aqueous test solutions prepared from 10′000 ppm DMSO stock solutions. After drying the leaves were infested with N2 nymphs. The samples were assessed for mortality and growth inhibition in comparison to untreated samples 5 days after infestation.

[7] = test system: Myzus persicae; test: Myzus persicae (green peach aphid) leaf disc test; settings: foliar, 144 h, read-out: control (mortality)
Description: Myzus persicae (Green Peach Aphid):
Sunflower leaf discs were placed on agar in a 24-well microtiter plate and sprayed with test solutions at an application rate of 200 ppm. After drying, the leaf discs were infested with an aphid population of mixed ages. After an incubation period of 6 DAT, samples were checked for mortality.

[8] = application rate 200 ppm, artificial diet, L2 larvae, 5 days after infestation
[9] = application rate 200 ppm, bean leaf discs sprayed, 8 days after infestation
[10] = application rate 200 ppm, soybean leaves sprayed, N2 nymphs, 5 days after infestation
[11] = application rate 200 ppm, maize sprouts sprayed, L2 larvae, 4 days after infestation
[12] = application rate 200 ppm, sunflower leaf discs sprayed, mixed ages, 6 days after infestation
[13] = application rate 200 ppm, sunflower leaf discs sprayed, mixed ages, 6 DAT

CCOC(=O)N(C(=O)c1cc(-c2cnn(-c3c(C(F)(F)F)c(OS(=O)(=O)C(F)(C(F)(F)F)C(F)(F)F)nn3C)c2)ccc1Cl)C1(C#N)CC1 [Compound 51, [5-[4-[4-chloro-3-[(1-cyanocyclopropyl)-ethoxycarbonyl-carbamoyl]phenyl]pyrazol-1-yl]-1-methyl-4-(trifluoromethyl)pyrazol-3-yl] 1,1,1,2,3,3,3-heptafluoropropane-2-sulfonate]
≥ 80%: percent control (mortality, anti-feedant effect or growth inhibition) at 200 ppm [1] | mortality at 200 ppm [2] | mortality at 200 ppm [3] | mortality at 200 ppm [4] | mortality at 200 ppm [5] | mortality at 200 ppm [6] | mortality at 200 ppm [7]

Cn1nc(OS(=O)(=O)C(F)(C(F)(F)F)C(F)(F)F)c(C(F)(F)F)c1-n1cc(-c2ccc(Cl)c(C(=O)NC3(C(F)(F)F)CC3)c2)cn1 [Compound 65, [5-[4-[4-chloro-3-[[1-(trifluoromethyl)cyclopropyl]carbamoyl]phenyl]pyrazol-1-yl]-1-methyl-4-(trifluoromethyl)pyrazol-3-yl] 1,1,1,2,3,3,3-heptafluoropropane-2-sulfonate]
≥ 80%: percent control (mortality, anti-feedant effect or growth inhibition) at 200 ppm [1] | mortality at 200 ppm [2, 8] | mortality at 200 ppm [5, 9] | mortality at 200 ppm [6, 10]

CC(=O)N(C(=O)c1cc(-c2cnn(-c3c(C(F)(F)F)c(OS(=O)(=O)C(F)(C(F)(F)F)C(F)(F)F)nn3C)c2)ccc1Cl)C1(C#N)CC1 [Compound 46, [5-[4-[3-[acetyl-(1-cyanocyclopropyl)carbamoyl]-4-chloro-phenyl]pyrazol-1-yl]-1-methyl-4-(trifluoromethyl)pyrazol-3-yl] 1,1,1,2,3,3,3-heptafluoropropane-2-sulfonate]
≥ 80%: percent control (mortality, anti-feedant effect or growth inhibition) at 200 ppm [1] | mortality at 200 ppm [2, 8] | mortality at 200 ppm [3, 11] | mortality at 200 ppm [4, 12] | mortality at 200 ppm [5, 9] | mortality at 200 ppm [6, 10] | mortality at 200 ppm [7, 13]

CN(C(=O)c1cc(-c2cc(-c3c(C(F)(F)F)c(OS(=O)(=O)C(F)(C(F)(F)F)C(F)(F)F)nn3C)no2)ccc1Cl)C1(C#N)CC1 [Compound 37, [5-[5-[4-chloro-3-[(1-cyanocyclopropyl)-methyl-carbamoyl]phenyl]isoxazol-3-yl]-1-methyl-4-(trifluoromethyl)pyrazol-3-yl] 1,1,1,2,3,3,3-heptafluoropropane-2-sulfonate]
≥ 80%: percent control (mortality, anti-feedant effect or growth inhibition) at 200 ppm [1] | mortality at 200 ppm [2, 8] | mortality at 200 ppm [3, 11] | mortality at 200 ppm [4, 12] | mortality at 200 ppm [5, 9] | mortality at 200 ppm [6, 10] | mortality at 200 ppm [7, 13]

Cn1nc(OS(=O)(=O)C(F)(F)C(F)(F)F)c(C(F)(F)F)c1-n1cc(-c2ccc(Cl)c(C(=O)NC3(C#N)CC3)c2)cn1 [Compound 1, [5-[4-[4-chloro-3-[(1-cyanocyclopropyl)carbamoyl]phenyl]pyrazol-1-yl]-1-methyl-4-(trifluoromethyl)pyrazol-3-yl] 1,1,2,2,2-pentafluoroethanesulfonate]
≥ 80%: percent control (mortality, anti-feedant effect or growth inhibition) at 200 ppm [1] | mortality at 200 ppm [2, 8] | mortality at 200 ppm [3, 11] | mortality at 200 ppm [5, 9] | mortality at 200 ppm [6, 10]

CN(C(=O)c1cc(-c2cc(-c3c(C(F)(F)F)c(OS(=O)(=O)C(F)(C(F)(F)F)C(F)(F)F)nn3C)no2)ccc1Cl)C1CC1 [Compound 34, [5-[5-[4-chloro-3-[cyclopropyl(methyl)carbamoyl]phenyl]isoxazol-3-yl]-1-methyl-4-(trifluoromethyl)pyrazol-3-yl] 1,1,1,2,3,3,3-heptafluoropropane-2-sulfonate]
≥ 80%: percent control (mortality, anti-feedant effect or growth inhibition) at 200 ppm [1] | mortality at 200 ppm [2, 8] | mortality at 200 ppm [3, 11] | mortality at 200 ppm [4, 12] | mortality at 200 ppm [5, 9] | mortality at 200 ppm [6, 10] | mortality at 200 ppm [7, 13]

CN(C(=O)c1cc(-c2cnn(-c3c(C(F)(F)F)c(OS(=O)(=O)C(F)(F)C(F)(F)C(F)(F)C(F)(F)F)nn3C)c2)ccc1Cl)C1(C#N)CC1 [Compound 6, [5-[4-[4-chloro-3-[(1-cyanocyclopropyl)-methyl-carbamoyl]phenyl]pyrazol-1-yl]-1-methyl-4-(trifluoromethyl)pyrazol-3-yl] 1,1,2,2,3,3,4,4,4-nonafluorobutane-1-sulfonate]
≥ 80%: percent control (mortality, anti-feedant effect or growth inhibition) at 200 ppm [1] | mortality at 200 ppm [2] | mortality at 200 ppm [3] | mortality at 200 ppm [4] | mortality at 200 ppm [6]

Cn1nc(OS(=O)(=O)C(F)(C(F)(F)F)C(F)(F)F)c(C(F)(F)F)c1-n1cc(-c2ccc(Cl)c(C(=O)N[C@H]3C[C@@H]3C#N)c2)cn1 (racemic) [Compound 69, (rac)-[5-[4-[4-chloro-3-[[(1S,2S)-2-cyanocyclopropyl]carbamoyl]phenyl]pyrazol-1-yl]-1-methyl-4-(trifluoromethyl)pyrazol-3-yl] 1,1,1,2,3,3,3-heptafluoropropane-2-sulfonate]
≥ 80%: percent control (mortality, anti-feedant effect or growth inhibition) at 200 ppm [1] | mortality at 200 ppm [2, 8] | mortality at 200 ppm [5, 9] | mortality at 200 ppm [6, 10] | mortality at 200 ppm [7, 13]

Cn1nc(OS(=O)(=O)C(F)(C(F)(F)F)C(F)(F)F)c(C(F)(F)F)c1-n1cc(-c2ccc(Cl)c(C(=O)NC3(CC#N)CC3)c2)cn1 [Compound 68, [5-[4-[4-chloro-3-[[1-(cyanomethyl)cyclopropyl]carbamoyl]phenyl]pyrazol-1-yl]-1-methyl-4-(trifluoromethyl)pyrazol-3-yl] 1,1,1,2,3,3,3-heptafluoropropane-2-sulfonate]
≥ 80%: percent control (mortality, anti-feedant effect or growth inhibition) at 200 ppm [1] | mortality at 200 ppm [2, 8] | mortality at 200 ppm [5, 9] | mortality at 200 ppm [6, 10]

CCOCN(C(=O)c1cc(-c2cnn(-c3c(C(F)(F)F)c(OS(=O)(=O)C(F)(C(F)(F)F)C(F)(F)F)nn3C)c2)ccc1Cl)C1(C#N)CC1 [Compound 47, [5-[4-[4-chloro-3-[(1-cyanocyclopropyl)-(ethoxymethyl)carbamoyl]phenyl]pyrazol-1-yl]-1-methyl-4-(trifluoromethyl)pyrazol-3-yl] 1,1,1,2,3,3,3-heptafluoropropane-2-sulfonate]
≥ 80%: percent control (mortality, anti-feedant effect or growth inhibition) at 200 ppm [1] | mortality at 200 ppm [2, 8] | mortality at 200 ppm [3, 11] | mortality at 200 ppm [4, 12] | mortality at 200 ppm [6, 10] | mortality at 200 ppm [7, 13]

CCN(C(=O)c1cc(-c2cc(-c3c(C(F)(F)F)c(OS(=O)(=O)C(F)(C(F)(F)F)C(F)(F)F)nn3C)no2)ccc1Cl)C1(C#N)CC1 [Compound 38, [5-[5-[4-chloro-3-[(1-cyanocyclopropyl)-ethyl-carbamoyl]phenyl]isoxazol-3-yl]-1-methyl-4-(trifluoromethyl)pyrazol-3-yl] 1,1,1,2,3,3,3-heptafluoropropane-2-sulfonate]
≥ 80%: percent control (mortality, anti-feedant effect or growth inhibition) at 200 ppm [1] | mortality at 200 ppm [2, 8] | mortality at 200 ppm [5, 9] | mortality at 200 ppm [6, 10] | mortality at 200 ppm [7, 13]

CCN(C(=O)c1cc(-c2cnn(-c3c(C(F)(F)F)c(OS(=O)(=O)C(F)(F)C(F)(F)C(F)(F)C(F)(F)F)nn3C)c2)cnc1Cl)C1(C#N)CC1 [Compound 32, [5-[4-[6-chloro-5-[(1-cyanocyclopropyl)-ethyl-carbamoyl]-3-pyridyl]pyrazol-1-yl]-1-methyl-4-(trifluoromethyl)pyrazol-3-yl] 1,1,2,2,3,3,4,4,4-nonafluorobutane-1-sulfonate]
≥ 80%: percent control (mortality, anti-feedant effect or growth inhibition) at 200 ppm [1] | mortality at 200 ppm [2] | mortality at 200 ppm [3] | mortality at 200 ppm [4] | mortality at 200 ppm [6]

— patent US11071300B2, “Pesticidally active pyrazole derivatives” (SYNGENTA PARTICIPATIONS AG, priority 2017, dated 2021)
